Laboratory results taken from US5393775A, “Benzopyran compounds” (Adir et Compagnie, priority 1992, dated 1995).

What was measured:
[1] = tested on: lipoxygenase of human polynuclear cells (LTB4); assay: inhibition of the synthesis of LTB4 (lipoxygenase) in human polynuclear cells activated by A23187; type: cell-based; details: for inhibition at 10 µM: at 10^-5 M; for IC50: read-out: INHIBITION OF THE SYNTHESIS OF LTB4, CON[…] BY 50% (IC50 in M), read-out: INHIBITION OF THE SYNTHESIS OF LTB4, CONCENTRATION INHIBITING SYNTHESIS BY 50% (IC50 in M)
Experimental: The inhibitory activity of the compounds of formula (I) used according to the invention on the synthesis of eicosanoids is measured on washed human polynuclear cells, in the presence or in the absence of the compound to be tested, after activation of these cells by calcium (calcium ionophore A23187).
The production of the main eicosanoid, resulting from lipoxygenase, produced by human polynuclear cells: leukotriene B4 (LTB4), is measured by a radioimmunological test.

[2] = tested on: rat brain homogenates (spontaneous peroxidation of lipids); assay: spontaneous lipid peroxidation on rat brain homogenates; type: biochemical; details: at 10^-5 M, 60 minutes at 37° C.
Experimental: (§1) The action of the compounds of the invention, which are capable of trapping .OH radicals, was studied, on the one hand, on the spontaneous peroxidation of lipids and, on the other hand, on the peroxidation induced by the Fe^2+ /ascorbate (10 μm/250 μm) system on rat brain homogenates.
(§2) During the measurement of the spontaneous lipid peroxidation, the rat brain homogenates are placed in the presence or in the absence of the compounds to be tested for 60 minutes at 37° C. The reaction is halted at 0° C. and the quantitative determination of malondialdehyde is carried out using thiobarbituric acid by the method of Yagi, K., (1976), Biochem. Med., 15, 212-216. Lipid peroxidation is determined by the substances reacting with thiobarbituric acid expressed in nanomoles of malondialdehyde.
(§3) The concentrations of the tested compounds which inhibit by 50 % the peroxidation of the substrate or the antioxidizing activity of the compounds of the invention at a concentration of 10^-5 M are calculated.

[3] = tested on: rat brain homogenates (peroxidation induced by the Fe^2+ /ascorbate system); assay: lipid peroxidation induced by Fe^2+/ascorbate on rat brain homogenates; type: biochemical; details: at 10^-5 M, 60 minutes at 37° C.
Experimental: as §1, §2
During the measurement of the induced lipid peroxidation, the methodology is identical to the above with the exception of the addition to the homogenate of the radical inductive system: Fe^2+ /ascorbate. The reference substances are probucol and vitamin E.
as §3

## Cc1c(C)c2c(c(C)c1O)CCC(C)(C(=S)N1CCN(C(O)(c3ccccc3)c3ccccc3)CC1)O2 (stereo not drawn) [Example 98, 1-[(3,4-dihydro-6-hydroxy-2,5,7,8-tetramethyl-2H-1-benzopyran-2-yl)thiocarbonyl]-4-(1-hydroxy-1,1-diphenylmethyl)piperazine]
[1]
  inhibition at 10 µM: > 99%
  IC50: 1.3 µM

## Cc1cccc(C)c1NC(=S)C1(C)CCc2c(C)c(O)c(C)c(C)c2O1 (stereo not drawn) [Example 26, N-(2,6-dimethylphenyl)-6-hydroxy-3,4-dihydro-2,5,7,8-tetramethyl-2H-1-benzopyran-2-thiocarboxamide]
[2]
  INHIBITION OF THE PEROXIDATION WITH RESPECT TO THE CONTROL, SPONTANEOUS PEROXIDATION: 99
[3]
  INHIBITION OF THE PEROXIDATION WITH RESPECT TO THE CONTROL, INDUCED PEROXIDATION: 100
[1]
  inhibition at 10 µM: > 99%
  IC50: 0.5 µM

## Cc1c(C)c2c(c(C)c1O)CCC(C)(C(=S)Nc1ccccc1)O2 (stereo not drawn) [Example 2, N-phenyl-6-hydroxy-3,4-dihydro-2,5,7,8-tetramethyl-2H-1-benzopyran-2-thiocarboxamide]
[2]
  INHIBITION OF THE PEROXIDATION WITH RESPECT TO THE CONTROL, SPONTANEOUS PEROXIDATION: 100
[3]
  INHIBITION OF THE PEROXIDATION WITH RESPECT TO THE CONTROL, INDUCED PEROXIDATION: 100
[1]
  inhibition at 10 µM: > 99%
  IC50: 0.3 µM

## Cc1cc(C)nc(NC(=S)C2(C)CCc3c(C)c(O)c(C)c(C)c3O2)c1 (stereo not drawn) [Example 6, N-(4,6-dimethylpyrid-2-yl)-6-hydroxy-3,4-dihydro-2,5,7,8-tetramethyl-2H-1-benzopyran-2-thiocarboxamide]
[1]
  inhibition at 10 µM: > 99%
  IC50: 0.6 µM

## Cc1c(C)c2c(c(C)c1O)CCC(C)(C(=S)N1CCN(c3ccccn3)CC1)O2 (stereo not drawn) [Example 86, 1-[(3,4-dihydro-6-hydroxy-2,5,7,8-tetramethyl-2H-1-benzopyran-2-yl)thiocarbonyl]-4-(2-pyridyl)piperazine]
[1]
  inhibition at 10 µM: > 99%
  IC50: 0.2 µM

## Cc1c(C)c2c(c(C)c1O)CCC(C)(C(=S)N1CCN(c3ccc(F)cc3)CC1)O2 (stereo not drawn) [Example 88, 1-[(3,4-dihydro-6-hydroxy-2,5,7,8-tetramethyl-2H-1-benzopyran-2-yl)thiocarbonyl]-4-(4-fluorophenyl)piperazine]
[1]
  inhibition at 10 µM: > 99%
  IC50: 0.1 µM

## COc1cc(NC(=S)C2(C)CCc3c(C)c(O)c(C)c(C)c3O2)cc(OC)c1OC (stereo not drawn) [Example 8, N-(3,4,5-trimethoxyphenyl)-6-hydroxy-3,4-dihydro-2,5,7,8-tetramethyl-2H-1-benzopyran-2-thiocarboxamide]
[1]
  inhibition at 10 µM: > 99%

## COc1ccc(CN2CCN(C(=S)C3(C)CCc4c(C)c(O)c(C)c(C)c4O3)CC2)c(OC)c1OC (stereo not drawn) [Example 94, 1-[(3,4-dihydro-6-hydroxy-2,5,7,8-tetramethyl-2H-1-benzopyran-2-yl)thiocarbonyl]-4-(2,3,4-trimethoxybenzyl)piperazine]
[1]
  inhibition at 10 µM: > 99%
  IC50: 0.3 µM

## Cc1c(C)c2c(c(C)c1O)CCC(C)(C(=S)N1CCN(c3ccccc3)CC1)O2 (stereo not drawn) [Example 84, 1-[(3,4-dihydro-6-hydroxy-2,5,7,8-tetramethyl-2H-1-benzopyran-2-yl)thiocarbonyl]-4-phenylpiperezine]
[1]
  inhibition at 10 µM: > 99%
  IC50: 0.3 µM

## Cc1cc(C)c(NC(=S)C2(C)CCc3c(C)c(O)c(C)c(C)c3O2)cc1C (stereo not drawn) [Example 4, N-(2,4,5-trimethylphenyl)-6-hydroxy-3,4-dihydro-2,5,7,8-tetramethyl-2H-1-benzopyran-2-thiocarboxamide]
[2]
  INHIBITION OF THE PEROXIDATION WITH RESPECT TO THE CONTROL, SPONTANEOUS PEROXIDATION: 98
[3]
  INHIBITION OF THE PEROXIDATION WITH RESPECT TO THE CONTROL, INDUCED PEROXIDATION: 100
[1]
  inhibition at 10 µM: > 99%
  IC50: 0.5 µM

## Cc1c(C)c2c(c(C)c1O)CCC(C)(C(=S)N1CCN(c3ccc(Cl)cc3)CC1)O2 (stereo not drawn) [Example 92, 1-[(3,4-dihydro-6-hydroxy-2,5,7,8-tetramethyl-2H-1-benzopyran-2-yl)thiocarbonyl]-4-(4-chlorophenyl)piperazine]
[1]
  inhibition at 10 µM: > 99%
  IC50: 0.2 µM
